Patent publication US11911393B2, “Non-catalytic substrate-selective p38alpha-specific MAPK inhibitors with endothelial-stabilizing and anti-inflammatory activity, and methods of use thereof” (University of Maryland, Baltimore, priority 2016, dated 2024)

Test system: TNFα-induced gene expression in HMVECLs
Experiment: RNASeq of TNFα-induced gene expression
Assay type: cell-based, human
Details: 100 μM UM101, 10 μM SB203580

C[S+]([O-])c1ccc(-c2nc(-c3ccncc3)c(-c3ccc(F)cc3)[nH]2)cc1 (stereo not shown) [SB203580, reference compound]
5: bin (gene expression response pattern): AC073850.6 (HMVECLs, TNFα) | bin (gene expression response pattern): AGPAT9 (HMVECLs, TNFα) | bin (gene expression response pattern): ARHGAP18 (HMVECLs, TNFα) | bin (gene expression response pattern): ARHGEF28 (HMVECLs, TNFα) | bin (gene expression response pattern): ARL11 (HMVECLs, TNFα) | bin (gene expression response pattern): BCL2L10 (HMVECLs, TNFα) | bin (gene expression response pattern): BMF (HMVECLs, TNFα) | bin (gene expression response pattern): C2CD4B (HMVECLs, TNFα) | bin (gene expression response pattern): C19orf35 (HMVECLs, TNFα) | bin (gene expression response pattern): CELF2-AS1 (HMVECLs, TNFα) | bin (gene expression response pattern): CH25H (HMVECLs, TNFα) | bin (gene expression response pattern): CTA-221G9.12 (HMVECLs, TNFα) | bin (gene expression response pattern): CTB-152G17.6 (HMVECLs, TNFα) | bin (gene expression response pattern): CXCL3 (HMVECLs, TNFα) | bin (gene expression response pattern): EPHX4 (HMVECLs, TNFα) | bin (gene expression response pattern): FAM84A (HMVECLs, TNFα) | bin (gene expression response pattern): FBX032 (HMVECLs, TNFα) | bin (gene expression response pattern): FHL2 (HMVECLs, TNFα) | bin (gene expression response pattern): GFOD1 (HMVECLs, TNFα) | bin (gene expression response pattern): GRPEL2 (HMVECLs, TNFα) | bin (gene expression response pattern): HEY1 (HMVECLs, TNFα) | bin (gene expression response pattern): HMSD (HMVECLs, TNFα) | bin (gene expression response pattern): HRCT1 (HMVECLs, TNFα) | bin (gene expression response pattern): HTR1D (HMVECLs, TNFα) | bin (gene expression response pattern): IBA57-AS1 (HMVECLs, TNFα) | bin (gene expression response pattern): ID1 (HMVECLs, TNFα) | bin (gene expression response pattern): INPP4B (HMVECLs, TNFα) | bin (gene expression response pattern): JUNB (HMVECLs, TNFα) | bin (gene expression response pattern): KDM7A (HMVECLs, TNFα) | bin (gene expression response pattern): KIT (HMVECLs, TNFα) | bin (gene expression response pattern): KLF15 (HMVECLs, TNFα) | bin (gene expression response pattern): KSR2 (HMVECLs, TNFα) | bin (gene expression response pattern): LMCD1 (HMVECLs, TNFα) | bin (gene expression response pattern): LONRF3 (HMVECLs, TNFα) | bin (gene expression response pattern): LRFN1 (HMVECLs, TNFα) | bin (gene expression response pattern): LYL1 (HMVECLs, TNFα)
2: bin (gene expression response pattern): GPR68 (HMVECLs, TNFα) | bin (gene expression response pattern): LRFN5 (HMVECLs, TNFα)
7: bin (gene expression response pattern) (AC003092.1 (ENSG00000236453)) | bin (gene expression response pattern) (AC010642.2 (ENSG00000269794)) | bin (gene expression response pattern) (ADAP1 (ENSG00000105963)) | bin (gene expression response pattern) (ADM2 (ENSG00000128165)) | bin (gene expression response pattern) (APOBEC3G (ENSG00000239713)) | bin (gene expression response pattern) (APOL2 (ENSG00000128335)) | bin (gene expression response pattern) (APOL6 (ENSG00000221963)) | bin (gene expression response pattern) (C1QTNF1 (ENSG00000173918)) | bin (gene expression response pattern) (C6orf58 (ENSG00000184530)) | bin (gene expression response pattern) (C11orf88 (ENSG00000183644)) | bin (gene expression response pattern) (CCL1 (ENSG00000108702)) | bin (gene expression response pattern) (CD40 (ENSG00000101017)) | bin (gene expression response pattern) (CDON (ENSG00000064309)) | bin (gene expression response pattern) (CLEC2D (ENSG00000069493)) | bin (gene expression response pattern) (CTC-231O11.1 (ENSG00000253522)) | bin (gene expression response pattern) (CTD-2369P2.8 (ENSG00000267607)) | bin (gene expression response pattern) (CX3CL1 (ENSG00000006210)) | bin (gene expression response pattern) (DRD4 (ENSG00000069696)) | bin (gene expression response pattern) (EGLN3 (ENSG00000129521)) | bin (gene expression response pattern) (ENKUR (ENSG00000151023)) | bin (gene expression response pattern) (ETV3L (ENSG00000253831)) | bin (gene expression response pattern) (GCH1 (ENSG00000131979)) | bin (gene expression response pattern) (GPR37L1 (ENSG00000170075)) | bin (gene expression response pattern) (GPR182 (ENSG00000166856)) | bin (gene expression response pattern) (HELZ2 (ENSG00000130589))
8: bin (gene expression response pattern) (AC116366.6 (ENSG00000234290)) | bin (gene expression response pattern) (ANKRD55 (ENSG00000164512)) | bin (gene expression response pattern) (BPGM (ENSG00000172331)) | bin (gene expression response pattern) (C8orf4 (ENSG00000176907)) | bin (gene expression response pattern) (C15orf54 (ENSG00000175746)) | bin (gene expression response pattern) (CD69 (ENSG00000110848)) | bin (gene expression response pattern) (CSF2 (ENSG00000164400)) | bin (gene expression response pattern) (EBI3 (ENSG00000105246)) | bin (gene expression response pattern) (ERVFRD-1 (ENSG00000244476)) | bin (gene expression response pattern) (F2RL3 (ENSG00000127533)) | bin (gene expression response pattern) (FAM101A (ENSG00000178882)) | bin (gene expression response pattern) (HAND1 (ENSG00000113196)) | bin (gene expression response pattern) (HAS2 (ENSG00000170961)) | bin (gene expression response pattern) (HEPACAM (ENSG00000165478))
3: bin (gene expression response pattern): CCL17 (HMVECLs, TNFα) | bin (gene expression response pattern): CD200 (HMVECLs, TNFα) | bin (gene expression response pattern): CD207 (HMVECLs, TNFα) | bin (gene expression response pattern): CTA-212A2.1 (HMVECLs, TNFα) | bin (gene expression response pattern): CXCL5 (HMVECLs, TNFα) | bin (gene expression response pattern): CXCL10 (HMVECLs, TNFα) | bin (gene expression response pattern): CXCL11 (HMVECLs, TNFα) | bin (gene expression response pattern): ELOVL7 (HMVECLs, TNFα) | bin (gene expression response pattern): EXOC3L4 (HMVECLs, TNFα) | bin (gene expression response pattern): GBP1P1 (HMVECLs, TNFα) | bin (gene expression response pattern): GBP4 (HMVECLs, TNFα) | bin (gene expression response pattern): GPR88 (HMVECLs, TNFα) | bin (gene expression response pattern): HAS3 (HMVECLs, TNFα) | bin (gene expression response pattern): IDO1 (HMVECLs, TNFα) | bin (gene expression response pattern): IL1B (HMVECLs, TNFα) | bin (gene expression response pattern): LINC00677 (HMVECLs, TNFα)
4: bin (gene expression response pattern): FP236383.10 (HMVECLs, TNFα)
1: bin (gene expression response pattern): BAMBI (HMVECLs, TNFα) | bin (gene expression response pattern): DLL4 (HMVECLs, TNFα) | bin (gene expression response pattern): ETV1 (HMVECLs, TNFα) | bin (gene expression response pattern): FLRT3 (HMVECLs, TNFα) | bin (gene expression response pattern): KCNJ12 (HMVECLs, TNFα) | bin (gene expression response pattern): KIAA1211L (HMVECLs, TNFα)
